We go through one molecule from the NIST ThermoML archive (doi:10.1021/je900646u).

± gives the expanded uncertainty stated by the source.

For the data set the following is noted: Crystal; DTA.

Consider `Nc1ccc(O)c(C(=O)O)c1` [5-aminosalicylic acid], for which the Normal melting temperature came out at 281.00 ± 0.5 °C.
